The test system of data set [1] is volunteer. The data set can be described thus: Pre ejaculation time of volunteers after taking the formulation or drug orally. Type of data set: in vivo, human. Conditions: for average pre ejaculation time: 5 minutes without the drug.
The subject of data set [2] is volunteer. The data set can be described thus: Side effects reported by the volunteers after taking the formulation or drug orally. In kind it is in vivo, human.
[3] abbreviates: capsule, 60 mg only, after 3 hours, repeated experiments.

We go through nine compounds from patent US11607406B2, “Therapeutical methods, formulations and nutraceutical formulations” (priority 2014, dated 2023).

For the compound `COc1cccc(C2(O)CCCCC2CN(C)C)c1` (centres unmarked) [Tramadol, 2-[(dimethylamino)methyl]-1-(3-methoxyphenyl)-cyclohexanol], the “average pre ejaculation time” value in the data set on volunteer [1] (20 mg only) came to 10 min.

As for `COc1cc(/C=C/C(=O)CC(=O)/C=C/c2ccc(O)c(OC)c2)ccc1O` [curcumin, diferuloylmethane], in the data set on volunteer [1] (capsule with curcumin 500 mg, after 1 hours, 3 hours and 12 hours), the “changes in pre ejaculation time” value is “no significant changes”.

For `CN(C)[C@@H](CCOc1cccc2ccccc12)c1ccccc1` [dapoxetine], the “average pre ejaculation time” value in the data set on volunteer [1] (setting [3]) was 20 min. Besides, the side effects entry with volunteer [2] (capsule, 60 mg only) is “significant side effects (stomach irritation, nausea and headache)”.

Take `CNCC[C@H](Oc1cccc2ccccc12)c1cccs1` [duloxetine]: in the data set on volunteer [1] (setting [3]), the “increase in pre-ejaculation time” value is on record as “no significant increase”. The side effects entry with volunteer [2] (capsule, 60 mg only) is “significant side effects (stomach irritation, nausea and headache)”.

Regarding `CN(C)CCC[C@@]1(c2ccc(F)cc2)OCc2cc(C#N)ccc21` [escitalopram], the “changes in pre ejaculation time” value with volunteer [1] (20 mg only, once orally, after 3 hours) is “no significant changes”. Moreover, in the data set on volunteer [2] (20 mg only, once orally), the side effects result is given as “significant side effects”.

With `CC(C)=CCC[C@]1(C)[C@@H](CC=C(C)C)C[C@@]2(CC=C(C)C)C(=O)[C@]1(C(=O)C(C)C)C(=O)C(CC=C(C)C)=C2O` [hyperforin], the “average pre ejaculation time (change)” value with volunteer [1] (1 capsule, 10 mg only, after 2 hours) is recorded as “not changed”. Further, in the data set on volunteer [1] (1 capsule, 30 mg only, after 2 hours, repeated tests), the “average pre ejaculation time” value is on record as “around 8 minutes”. Also, the side effects result in the data set on volunteer [2] (1 capsule, 30 mg only (hyperforin)) is recorded as “headache”.

`Fc1ccc([C@@H]2CCNC[C@H]2COc2ccc3c(c2)OCO3)cc1` [paroxetine]: in the data set on volunteer [1] (capsule, 30 mg only, after 3 hours, repeated experiments), the “average pre ejaculation time” value amounted to 8 min. In addition, in the data set with volunteer [2] (capsule, 30 mg only (paroxetine)), the side effects result was “significant side effects (stomach irritation, nausea and headache)”.

Consider `COc1cc2c(cc1OC)[C@@H]1Cc3ccc(OC)c(OC)c3CN1CC2` [rotundine, L-tetrahydropalmatine], for which the ejaculation latency result in the data set on volunteer [1] (alone, taken orally 50~200 mg 1 hr before sex) was “increase ejaculation latency”.

As to `CN[C@H]1CC[C@@H](c2ccc(Cl)c(Cl)c2)c2ccccc21` [sertraline], in the data set with volunteer [1] (60 mg once daily for 10 days continuously), the “average pre ejaculation time” value stood at 10 min. The “increase in pre-ejaculation time” value in the data set on volunteer [1] (setting [3]) is recorded as “no significant increase”. Also, in the data set with volunteer [2] (capsule, 60 mg only), the side effects result was “significant side effects (stomach irritation, nausea and headache)”.
